# Measurements as given in patent publication US10036036B1, “Compositions and methods for deploying a transgenic refuge as a seed blend” (priority 2007, dated 2018).
# System: western and northern corn rootworm
# Assay: Field trial (Example 3): corn rootworm damage by Iowa class, percent of control and synergy threshold
# Type: in vivo
# Method: A field trial was established and completed in accordance with pertinent protocols and in conformance with USDA notification requirements. The purpose of the trial was to determine the efficacy of transgenic event Cry3Bb.11231 in corn seed in combination with corn rootworm seed treatments using imidacloprid.
# All seed treatments with pesticides were carried out as described in Example 1. In seed treatment number 1 and 2, Gaucho® was used for wire worm protection, but at levels sufficiently low that it would be expected to have no effect on corn rootworms (i.e., at a treatment level of about 60 gm of active/100 kg seed or 0.16 mg active/kernel), otherwise, seed receiving treatment number 2 had only transgenic event Cry3Bb.11231 and no pesticide treatment that would be expected to be effective against corn rootworm.
# For seeds having treatments numbered 3 through 5, the pesticides were applied by the methods described in Example 1. For seeds having treatment numbers 6 and 7, commercially available Force® 3 G and Lorsban® 15 G were applied to the soil in a 5″ band at the time of sowing. The levels of application are as shown and are within the ranges recommended for standard commercial practice.
# Corn seeds to be tested were planted and grown at four different locations across several Midwestern states in the United States corn belt according to the protocol described above.
# The determination of damage by corn root worm was made according to the protocol described in Example 2.
# The combination of imidacloprid seed treatment with corn seed having a Cry3Bb.11231 transgenic event was tested for possible synergy at a level of rootworm damage of 3-6. In the first test, shown in Table 2, the percentage of test plants having damage levels of from 3 to 6, on the Iowa 1-6 Scale, was determined for the control and for seeds treated with the pesticide at two levels, and for seeds having the transgenic event, alone and in combination. The following formula was then used to calculate a “synergy threshold”: (% of control Cry3Bb.11231)*(% of control imidacloprid treatment)/100.
# This threshold was compared against the percent of control for the treatment combination (i.e., Cry3Bb.11231 with imidacloprid @ 400 gm/100 kg). If the treatment combination percent of control was below the threshold, then it was concluded that there was synergy.
# It was believed that the measurement of rootworm damage at higher damage levels (i.e., levels 3-6) is a useful indicator that correlates with subsequent yield loss due to such damage. The reason for this is that rootworm damage at levels 1 and 2 seldom causes corn plants to fall over and lodge, and such minimal root loss is not believed to reduce the number or weight of kernels per ear. However, root damage at levels of 3 and above increasingly causes lodging and loss of yield. Therefore, it is believed that the summed damage levels of 3-6 (and in some cases, 4-6 and 5 and 6), provides a useful indication of the effect of corn rootworm damage on subsequent corn yield.
structure (smiles),measurement,setting,value
"O=[N+]([O-])NC1=NCCN1Cc1ccc(Cl)nc1 [Imidacloprid, 1-[(6-chloro-3-pyridinyl)methol]-N-nitro-2-imidazolidinimime]",PERCENT OF CONTROL,"Table 2, plants with damage levels 3-6 relative to isohybrid control",80.5%
same,NUMBER OF PLANTS HAVING 3-6 DAMAGE LEVEL,"Table 3, damage levels 3-6 on Iowa 1-6 scale",71.7
same,PERCENT OF CONTROL,"Table 3, damage levels 3-6 relative to untreated control",80.5%
same,CORN ROOTWORM DAMAGE IN EACH IOWA CLASS (IOWA 1-6 SCALE): 1,count of plants in Iowa class 1,3
same,CORN ROOTWORM DAMAGE IN EACH IOWA CLASS (IOWA 1-6 SCALE): 2,count of plants in Iowa class 2,15
same,CORN ROOTWORM DAMAGE IN EACH IOWA CLASS (IOWA 1-6 SCALE): 3,count of plants in Iowa class 3,36
same,CORN ROOTWORM DAMAGE IN EACH IOWA CLASS (IOWA 1-6 SCALE): 4,count of plants in Iowa class 4,21
same,CORN ROOTWORM DAMAGE IN EACH IOWA CLASS (IOWA 1-6 SCALE): 5,count of plants in Iowa class 5,5
same,CORN ROOTWORM DAMAGE IN EACH IOWA CLASS (IOWA 1-6 SCALE): 6,count of plants in Iowa class 6,0
